Assay results reported in ChEMBL document CHEMBL4665713, “Synthesis and biological evaluation of novel quinazoline-triazole hybrid compounds with potential use in Alzheimer's disease” (Bioorg Med Chem Lett, 2020).
pIC50: −log10 of the molar value.

Key:
[1] = molecular target: Acetylcholinesterase (Electrophorus electricus, UniProt O42275); test: Inhibition of electric eel AChE using acetylthiocholine iodide as substrate preincubated with enzyme for 10 mins prior to substrate addition and measured for 6 mins by Ellman's method
Acetylcholinesterase (Electrophorus electricus, UniProt O42275), sequence (O42275 whole entry): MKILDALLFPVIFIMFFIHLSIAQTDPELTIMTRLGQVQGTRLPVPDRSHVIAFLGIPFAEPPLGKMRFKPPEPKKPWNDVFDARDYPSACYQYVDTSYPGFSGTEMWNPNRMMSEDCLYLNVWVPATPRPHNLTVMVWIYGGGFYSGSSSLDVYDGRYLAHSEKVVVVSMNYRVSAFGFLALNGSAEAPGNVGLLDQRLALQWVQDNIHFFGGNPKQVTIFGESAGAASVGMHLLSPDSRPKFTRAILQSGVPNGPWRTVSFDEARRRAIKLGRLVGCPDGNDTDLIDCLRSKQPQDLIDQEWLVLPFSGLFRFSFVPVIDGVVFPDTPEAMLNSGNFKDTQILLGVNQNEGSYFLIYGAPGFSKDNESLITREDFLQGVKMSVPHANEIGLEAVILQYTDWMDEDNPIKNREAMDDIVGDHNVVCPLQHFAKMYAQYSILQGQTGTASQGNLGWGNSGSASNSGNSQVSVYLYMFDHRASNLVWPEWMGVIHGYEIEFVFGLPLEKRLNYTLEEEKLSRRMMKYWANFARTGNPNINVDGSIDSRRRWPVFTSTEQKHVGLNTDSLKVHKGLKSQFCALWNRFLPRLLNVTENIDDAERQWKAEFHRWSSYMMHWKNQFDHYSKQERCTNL

[2] = Cytotoxicity against human KB-CCL-17 cells assessed as reduction in cell viability by MTT assay; format: functional, cell-based
[3] = Cytotoxicity against human Lu1 cells assessed as reduction in cell viability by MTT assay; format: functional, cell-based
[4] = test system: HepG2; test: Cytotoxicity against human HepG2 cells assessed as reduction in cell viability by MTT assay; format: functional, cell-based
[5] = molecular target: T1, Acetylcholinesterase (Rattus norvegicus, UniProt P37136); test: Inhibition of AChE in rat brain using acetylthiocholine iodide as substrate by Ellman's UV-vis spectrophotometric method; format: tissue-based
T1 sequence (P37136 whole entry): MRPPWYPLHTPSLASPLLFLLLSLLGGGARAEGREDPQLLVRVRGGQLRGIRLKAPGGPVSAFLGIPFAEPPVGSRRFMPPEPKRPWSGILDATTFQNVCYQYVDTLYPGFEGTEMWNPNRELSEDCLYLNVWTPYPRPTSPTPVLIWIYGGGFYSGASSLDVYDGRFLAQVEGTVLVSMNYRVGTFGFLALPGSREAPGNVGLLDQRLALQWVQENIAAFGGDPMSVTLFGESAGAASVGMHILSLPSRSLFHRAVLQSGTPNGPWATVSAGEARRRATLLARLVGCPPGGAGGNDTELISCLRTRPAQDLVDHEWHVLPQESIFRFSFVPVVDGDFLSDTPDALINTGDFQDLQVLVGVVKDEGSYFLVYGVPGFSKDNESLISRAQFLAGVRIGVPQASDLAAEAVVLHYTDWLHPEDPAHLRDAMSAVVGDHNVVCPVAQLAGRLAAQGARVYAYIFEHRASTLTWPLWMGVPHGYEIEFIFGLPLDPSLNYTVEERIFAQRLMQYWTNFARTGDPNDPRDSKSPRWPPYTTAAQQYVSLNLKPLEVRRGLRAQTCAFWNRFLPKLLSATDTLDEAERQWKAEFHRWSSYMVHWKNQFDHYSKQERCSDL

SMILES: Cc1ccc(Cn2cc(Oc3ccc4cc(C(=O)NC5CCN(Cc6ccccc6)CC5)c(=O)oc4c3)nn2)cc1C
- pIC50 [1]: 5.74

SMILES: C#CCOc1ccc2ncnc(NCc3ccccc3)c2c1
- pIC50 [2]: 4.22
- pIC50 [3]: < 3.70
- pIC50 [4]: < 3.70
- pIC50 [5]: 4.32

SMILES: C#CCOc1ccc2ncnc(N3CCN(C)CC3)c2c1
- pIC50 [2]: < 3.70
- pIC50 [3]: < 3.70
- pIC50 [4]: < 3.70
- pIC50 [5]: 4.08

SMILES: O=[N+]([O-])c1cccc(-n2cc(COc3ccc4ncnc(NCc5ccccc5)c4c3)nn2)c1
- pIC50 [2]: < 3.70
- pIC50 [3]: < 3.70
- pIC50 [4]: 4.03
- pIC50 [5]: 5.96

SMILES: CN1CCN(c2ncnc3ccc(OCc4cn(-c5cccc([N+](=O)[O-])c5)nn4)cc23)CC1
- pIC50 [2]: < 3.70
- pIC50 [3]: < 3.70
- pIC50 [4]: < 3.70
- pIC50 [5]: 4.80

SMILES: CN1CCN(c2ncnc3ccc(OCc4cn(-c5ccccc5[N+](=O)[O-])nn4)cc23)CC1
- pIC50 [2]: < 3.70
- pIC50 [3]: < 3.70
- pIC50 [4]: 3.85
- pIC50 [5]: 4.43

SMILES: O=[N+]([O-])c1ccc(-n2cc(COc3ccc4ncnc(Nc5cccc([N+](=O)[O-])c5)c4c3)nn2)cc1
- pIC50 [5]: < 3.70

SMILES: C#CCOc1ccc2ncnc(Nc3cccc([N+](=O)[O-])c3)c2c1
- pIC50 [5]: < 3.70

SMILES: N#Cc1cc(-n2cc(COc3ccc4ncnc(NCc5ccccc5)c4c3)nn2)ccc1C(F)(F)F
- pIC50 [5]: < 3.70

SMILES: O=[N+]([O-])c1ccc(-n2cc(COc3ccc4ncnc(NCc5ccccc5)c4c3)nn2)cc1
- pIC50 [5]: < 3.70

SMILES: O=[N+]([O-])c1ccccc1-n1cc(COc2ccc3ncnc(NCc4ccccc4)c3c2)nn1
- pIC50 [2]: 4.37
- pIC50 [3]: < 3.70
- pIC50 [4]: < 3.70
- pIC50 [5]: 6.64

SMILES: O=[N+]([O-])c1cccc(Nc2ncnc3ccc(OCc4cn(-c5cccc([N+](=O)[O-])c5)nn4)cc23)c1
- pIC50 [5]: < 3.70

SMILES: N#Cc1cc(-n2cc(COc3ccc4ncnc(Nc5cccc([N+](=O)[O-])c5)c4c3)nn2)ccc1C(F)(F)F
- pIC50 [5]: < 3.70

SMILES: CN1CCN(c2ncnc3ccc(OCc4cn(-c5ccc([N+](=O)[O-])cc5)nn4)cc23)CC1
- pIC50 [5]: < 3.70

SMILES: CN1CCN(c2ncnc3ccc(OCc4cn(-c5ccc(C(F)(F)F)c(C#N)c5)nn4)cc23)CC1
- pIC50 [5]: < 3.70

SMILES: O=[N+]([O-])c1cccc(Nc2ncnc3ccc(OCc4cn(-c5ccccc5[N+](=O)[O-])nn4)cc23)c1
- pIC50 [2]: < 3.70
- pIC50 [3]: < 3.70
- pIC50 [4]: < 3.70
- pIC50 [5]: 5.69

SMILES: Cc1c2ccncc2c(C)c2c1[nH]c1ccccc12 [ELLIPTECINE]
- pIC50 [2]: 5.96
- pIC50 [3]: 5.89
- pIC50 [4]: 6.07
